Measurements: patent US20240118268A1, “BIOMARKERS ON CELLULAR ENDOCRINE MODELS FOR ENDOCRINE DISRUPTION ASSESSMENT” (priority 2020, published 2024)
“Also recorded” adds a separate entry of the source. Read-outs that look alike come from different tables or passages of the source.

Key:
[1] = tested on: caspase-1; assay: Caspase 1 activity, Caspase-Glo 1 Inflammasome Assay; type: cell-based, human; details: 72 h; for Casp-1 activation (concentration): Table 4 summary; for caspase-1 activity compared to control: highest concentration tested
Experimental: Caspase 1 activity was evaluated using the Caspase-Glo® 1 1 Inflammasome Assay kit. The assay was performed according to the manufacturer's instructions. Luminescence was quantified with a Spark microplate reader.
Caspase 1 activity was evaluated using the Caspase-Glo®1 Inflammasome Assay kit. The assay was performed according to the manufacturer's instructions. Luminescence was quantified with a Spark microplate reader.

[2] = Neutral Red cell viability assay on JEG-Tox cells, 72 h; type: cell-based, human; details: human
Experimental: (§1) The JEG-3 human trophoblast cell line, derived from a human placental carcinoma, was obtained from the American Type Culture Collection (ATCC HTB-36). Cells were cultured in minimum Essential medium, supplemented with 10% fetal bovine serum (FBS), 1% L-glutamine, 0.5% penicillin and streptomycinin, in 75 cm2 polystyrene flasks. Cell cultures were maintained in a cell culture incubator (37° C., saturated humidity, 5% CO2). When the JEG-3 cells reached subconfluency, they were detached using trypsin-EDTA and counted. The cellular suspension was diluted and seeded either in 96-well microplates at a cellular density of 80,000 cells/mL or in 6-well microplates at 120,000 cells/mL, then kept at 37° C. for 24 h. The cells were incubated with EDCs according to example 1.
(§2) Cell viability was evaluated using the Neutral Red assay. The Neutral Red solution at 0.4% (m/v in water) was diluted in cell culture medium to obtain a working concentration of 50 μg/mL. […] The cells were then rinsed with PBS and lysed with a solution of acetic acid-ethanol (ethanol 50.6%, water 48.4% and acetic acid 1%). After homogenization, the fluorescence signal was scanned (λexc=540 nm, λem=600 nm) with a Tecan Spark microplate reader (Mannedorf, Switzerland). The cell viability was calculated compared to the control cells (the fluorescence of the control cells as 100% viability).

[3] = tested on: JEG-Tox cells; assay: as above; type: cell-based, human; details: 72 h
Experimental: as §1, §2

[4] = target: T1, P2X7 receptor (Homo sapiens, UniProt Q99572); type: cell-based; details: 72 h; for P2X7 receptor activation (in words): JEG-Tox; for P2X7 activation (concentration): Table 4 summary
T1 construct: P2X7 receptor is expressed by human placenta and JEG-Tox; endogenous in cells; host or cells: JEG-3 human trophoblast cell line (ATCC HTB-36) cultured in 2.5% FBS (JEG-Tox)
T1 sequence (Q99572 1-595): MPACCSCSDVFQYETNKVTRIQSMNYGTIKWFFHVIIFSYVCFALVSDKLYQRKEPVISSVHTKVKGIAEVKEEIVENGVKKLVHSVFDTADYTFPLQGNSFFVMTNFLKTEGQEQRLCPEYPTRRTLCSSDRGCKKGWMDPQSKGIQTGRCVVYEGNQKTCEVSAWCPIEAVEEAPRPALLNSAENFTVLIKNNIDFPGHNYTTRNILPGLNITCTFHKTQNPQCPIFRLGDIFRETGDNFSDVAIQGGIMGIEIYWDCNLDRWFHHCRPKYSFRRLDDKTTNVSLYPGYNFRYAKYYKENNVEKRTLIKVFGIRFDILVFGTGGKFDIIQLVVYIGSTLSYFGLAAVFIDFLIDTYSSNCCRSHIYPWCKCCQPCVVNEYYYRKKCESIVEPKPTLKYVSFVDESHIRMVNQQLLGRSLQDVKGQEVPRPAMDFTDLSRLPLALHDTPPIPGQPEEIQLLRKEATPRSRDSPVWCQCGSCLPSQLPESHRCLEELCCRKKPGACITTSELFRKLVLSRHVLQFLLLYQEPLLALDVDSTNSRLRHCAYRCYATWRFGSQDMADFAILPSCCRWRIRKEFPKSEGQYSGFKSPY
Experimental: (§3) P2X7 cell death receptor activation was evaluated using the YO-PRO-1® assay (Rat et al. J Biol Methods. 2017 Jan. 20; 4(1):e64). YO-PRO-1® probe only enters into cells after P2X7 receptor activation-induced pore opening, and binds to DNA, emitting fluorescence. A 1 mM YO-PRO-1 stock solution was diluted at 1/500 in PBS just before use and distributed into the wells of the microplate. After a 10-minute incubation time at room temperature, fluorescence signal was read (λex=491 nm, λem=509 nm) with a Spark cytofluorometer.
as §3, with “al., 2017).” for “al. J Biol Methods. 2017 Jan. 20; 4(1):e64).”, “(λex=485” for “(λex=491”, “λem=531” for “λem=509”

[5] = tested on: JEG-Tox cells; assay: Chromatin condensation (Hoechst 33342) as a hallmark of apoptosis; type: cell-based, human; details: 24 h
Experimental: The UV fluorescent probe Hoechst 33342 enters living and apoptotic cells, intercalating into DNA. The fluorescent signal is proportional to chromatin condensation in apoptosis. The cells were incubated with Hoechst 33342 at 10 μg/mL for 30 minutes at room temperature. The fluorescence signal was read (λex=360 nm, λem=460 nm) using a cytofluorometer (Spark).

[6] = tested on: caspase-9; assay: Caspase 9 activity, Caspase-Glo 9 Assay; type: cell-based, human; details: 10 μM
Experimental: Caspase 9 activity was evaluated using the Caspase-Glo® 9 Assay kit. The assay was performed according to the manufacturer's instructions. Luminescence was quantified with a Spark microplate reader.

[7] = tested on: JEG-3 cells; assay: Neutral red cell viability of JEG-3 cells with SLS or PFOA in 10% or 2.5% FBS; details: for living cells: 2.5% FBS
Experimental: The choriocarcinoma-derived JEG-3 cell-line (ATCC® HTB-36™, Manassas, VA, USA), was grown as recommended by ATCC: Minimum Essential Medium Eagle's medium supplemented with 10% fetal bovine serum, 2 mM of glutamine, 50 IU/mL of penicillin and 50 IU/mL of streptomycin. Cells were detached using trypsin, counted, and then seeded at 80,000 cells/mL in 96-well microplates (200 μL by well) and Nunc® Lab-Tek® II Chamber Slide™ system for immunostaining.
Cells were incubated with sodium lauryl sulfate or perfluorooctanoic acid diluted in culture medium supplemented with either 2.5% or 10% FBS. After 24 hours, cell viability was evaluated using the neutral red assay. Neutral Red solution at 0.4% in water was diluted in culture medium with a ratio of 1:79 to give a final concentration of 50 μg/mL. Neutral Red was distributed in the plates for a 3-hour incubation time at 37° C. The cells were then rinsed with PBS to remove any remaining unincorporated dye. The dye was then released from the cells using a lysis solution (1% acetic acid, 50% ethanol and 49% H2O) and the fluorescence was measured (λex=540 nm, λem=600 nm) using Spark microplate fluorometer (Tecan, Mannedorf, Switzerland).

[8] = JEG-Tox cells, 50 μM, 72 h, read-out: cell viability
[9] = Table 4 summary, loss of viability >= 30% counted as cytotoxic

Structure (SMILES)	effect on caspase-1 activity [1]	Casp-1 activation (concentration) [1]	cytotoxicity (concentration) [3, 9]	P2X7 receptor activation compared to control ([4]; 10 μM)	P2X7 receptor activation (in words) [4]	P2X7 activation (concentration) [4]	concentration at which chromatin condensation was initiated [5]	also measured
CC12CCC(/C(=C/c3ccccc3)C1=O)C2(C)C (stereo not drawn) [3-benzylidene camphor]	no effect	no	50 µM	1.50 fold change	triggered P2X7 receptor activation	1 to 10 µM		viability at 72 h, 50 µM [2, 8]: 70%
Clc1ccc(C(c2ccc(Cl)cc2)C(Cl)(Cl)Cl)cc1 [4,4′DDT]							2 µg/mL	
CCC(C)(C)c1ccc(O)cc1 [4-tert-amylphenol]	activated caspase-1	50 µM	no		triggered P2X7 receptor activation	0.1 to 50 µM		caspase-1 activity compared to control [1]: 1.5 fold change; concentration up to which no loss of cell viability was observed [3]: up to 50 μM; P2X7 receptor activation compared to control ([4]; 50 μM): 1.36 fold change
CCCCC(CC)COC(=O)c1ccccc1C(=O)OCC(CC)CCCC (stereo not drawn) [DEHP, Di(2-ethylhexyl)phtalate]	no effect	no	50 µM	1.16 fold change	triggered P2X7 receptor activation	10 µM		caspase-9 activity compared to control [6]: 1.20 fold change; viability at 72 h, 50 µM [2, 8]: 25%
CCCCCCCCCCCCOS(=O)(=O)[O-].[Na+] [SLS, sodium lauryl sulfate]								living cells ([7]; 30 μg/mL, 24 h): 37%; living cells ([7]; 50 μg/mL, 24 h): 10%; effect on JEG-3 cell viability ([7]; 10% FBS, all tested concentrations (up to 50 μg/mL), 24 h, sulfate): no effect; also recorded: did not observe any cell death; concentration inducing a dramatic loss of cell viability ([7]; diluted in 2.5% FBS): 30 µg/mL
CCCCOC(=O)c1ccccc1C(=O)OCc1ccccc1 [benzyl butyl phthalate]	no effect	no	50 µM	1.36 fold change	triggered P2X7 receptor activation	0.1 to 10 µM		caspase-9 activity compared to control [6]: 1.28 fold change; viability at 72 h, 50 µM ([2]; 50 μM, 72 h, read-out: cell viability): 40%
CCCCOC(=O)c1ccccc1C(=O)OCCCC [dibutyl phthalate]	no effect	no		1.6 fold change	triggered P2X7 receptor activation	0.01 to 50 µM		viability at 72 h, 50 µM [2]: 55%; cytotoxicity (concentration) ([3]; human): 50 µM
CC/C(=C(/CC)c1ccc(O)cc1)c1ccc(O)cc1 [diethylstilbestrol]	activated caspase-1	7.5 µM	15 µM		triggered P2X7 receptor activation	7.5 µM		caspase-1 activity compared to control [1]: 1.84 fold change; viability at 72 h, 15 µM ([2]; JEG-Tox cells, 15 μM, 72 h): 40%; P2X7 receptor activation compared to control ([4]; 7.5 μM): 1.48 fold change
CCO [ethanol]							2.5%	
OCCOc1ccccc1 [phenoxyethanol]							0.15%	
CCCOC(=O)c1ccc(O)cc1 [propylparaben]	activated caspase-1	100 µM			triggered P2X7 receptor activation	1 to 100 µM	20 µg/mL	caspase-1 activity compared to control [1]: 2.7 fold change; viability at 72 h, 100 µM [2]: 87%; P2X7 receptor activation compared to control ([4]; 100 μM): 1.69 fold change
CCOP(=S)(OCC)Oc1cnc2ccccc2n1 [quinalphos]							0.3 µg/mL	
Oc1cc(Cl)ccc1Oc1ccc(Cl)cc1Cl [triclosan]	no effect	No	10 µM		triggered P2X7 receptor activation	1 µM		viability at 72 h, 10 µM ([2]; JEG-Tox cells, 10 μM, 72 h): 60%; P2X7 receptor activation compared to control ([4]; 1 μM): 1.13 fold change
